# From article PMC4457528, “Identification of Novel Small Molecule Inhibitors of Oncogenic RET Kinase” (PLoS ONE, 2015)
# Columns and labels:
# [1] = molecular target: T1, wt RET (Homo sapiens, UniProt P07949); test: Invitrogen SelectScreen in vitro kinase assay, wt RET; format: biochemical; details: read-out: in vitro IC50 dose: RET
# T1 construct: purchased Invitrogen (SelectScreen service)
# Source text: Fig 2 ALW-II-41-27, HG-6-63-01 and XMD15-44 chemical structure. A) Chemical structure of the studied compounds: red colour indicates the “tail”, black colour indicates “linker”, and pink colour indicates the “head” part in the binding. B) Modelling of ALW-II-41-27 (left), XMD15-44 (middle) and HG-6-63-01(right) binding to the DFG-out conformation of RET.
# Though more rarely than C634 and M918 mutations, other mutations targeting RET residues in the tyrosine kinase domain can cause familial or sporadic MTC [1, 2]. […] Of note, RET A883 residue is located in the VI Hanks domain adjacent to RET activation loop and it corresponds to G372 residue in ABL kinase whose mutation has been isolated in imatinib-resistant patients.
# [2] = tested on: TT cells; test: Growth curves, TT medullary thyroid carcinoma cells (RET/C634W); format: cell-based; details: Homo sapiens, 20% serum, 95% CI in brackets, read-out: Growth inhibition IC50 dose TT
# Experimental: (§1) TT human cell line was obtained in 2002 from ATCC and authenticated by RET genotyping; it was derived from a MTC and harbors a cysteine 634 to tryptophan (C634W) RET mutation. TT cells were grown in RPMI 1640 supplemented with 20% fetal calf serum (GIBCO). MZ-CRC-1 human cells were kindly provided in 2009 by Robert F. Gagel (MD Anderson, Houston, TX) and authenticated by RET genotyping. […] Nthy-ori 3–1, a human thyroid follicular epithelial cell line immortalized by the SV40 large T gene, was obtained from European Collection of Cell Cultures (ECACC) (Wiltshire, UK) in 2010.
# (§2) To compare cell growth, we performed unpaired Student’s t test using the Instat software program (Graphpad Software Inc). P values were two-sided, and differences were considered statistically significant at P <.02. IC50 doses were calculated through a curve fitting analysis from last day values using the PRISM software program (Graphpad Software Inc).
# [3] = tested on: MZ-CRC-1 cells; test: Growth curves, MZ-CRC-1 medullary thyroid carcinoma cells (RET/M918T); format: cell-based; details: Homo sapiens, 10% serum, 95% CI in brackets, read-out: Growth inhibition IC50 dose MZ-CRC-1
# Experimental: as §1, §2
# [4] = tested on: SHC and MAPK phosphorylation in parental RAT1 cells; test: Western blot of SHC and MAPK phosphorylation in parental RAT1 cells; format: cell-based, rat; details: 2 hr
# Experimental: (§3) Protein lysates were prepared according to standard procedures. Briefly, cells were lysed in a buffer containing 50 mM N-2-hydroxyethylpiperazine-N'-2-ethanesulfonic acid (HEPES; pH 7.5), 1% (vol/vol) Triton X-100, 150 mM NaCl, 5 mM EGTA, 50 mM NaF, 20 mM sodium pyrophosphate, 1 mM sodium vanadate, 2 mM phenylmethylsulphonyl fluoride (PMSF) and 1 μg/ml aprotinin. Lysates were clarified by centrifugation at 10,000 Xg for 15 min. […] Immune complexes were detected with the enhanced chemiluminescence kit (Amersham Pharmacia Biotech, Little Chalfort, UK). Signal intensity was analyzed at the Phosphorimager (Typhoon 8600, Amersham Pharmacia Biotech) interfaced with the ImageQuant software. Anti-phospho-SHC (#07206), that recognizes SHC proteins when phosphorylated on Y317 was from Merck Millipore (Darmstadt, Germany). Anti-MAPK (#4695) and anti-phospho-MAPK (#4370), specific for p44/42MAPK (ERK1/2) phosphorylated on Thr202/Tyr204, anti-VEGFRII (#2479) and anti-phospho-VEGFRII (#2478), that recognizes VEGF Receptor 2 when phosphorylated on Y1175, were from Cell Signaling (Beverly, MA).
# (§4) Anti-SHC (#H-108) was from Santa Cruz Biotechnology (Santa Cruz, CA). Anti-RET is a polyclonal antibody raised against the tyrosine kinase protein fragment of human RET [28]. Anti-phospho905 is a phospho-specific polyclonal antibody recognizing RET proteins phosphorylated at Y905 and anti-phospho1062 is a phospho-specific polyclonal antibody recognizing RET proteins phosphorylated at Y1062 [13]. Secondary antibodies coupled to horseradish peroxidase were from Santa Cruz Biotechnology.
# EC: extracellular domain; IC: intracellular domain; TM: transmembrane domain.
# [5] = tested on: SHC and MAPK phosphorylation in Nthy-ori-3-1 cells; test: Western blot of SHC and MAPK phosphorylation in Nthy-ori-3-1 cells; format: cell-based, human; details: 10, 100 and 1,000 nM, 2 hr
# Experimental: as §3, §4
# We selected TT and MZ-CRC-1 cells, that derive from human MTC harbouring the RET/C634W or RET/M918T mutation, respectively, and TPC1 cells, that derive from human PTC bearing the RET/PTC1 (CCDC6-RET) rearrangement. […] Concentrations as low at 10 nM of all three drugs inhibited RET autophosphorylation as well as SHC and MAPK activation by 20–40% of control (Fig 4A–4C). […]
# [6] = molecular target: T2, VEGFRII (Homo sapiens, UniProt P35968); test: Western blot of VEGFRII phosphorylation in TT cells; format: cell-based; details: 2 hr, Western blotting
# T2 construct: endogenous in cells; host or cells: TT human medullary thyroid carcinoma cells
# Experimental: as §3
# VEGFRII inhibition is believed to contribute, based on its anti-angiogenic effect, to clinical activity of approved RET inhibitors such as vandetanib and cabozantinib.
# The blots were normalized using anti-VEGFRII (αVEGFRII) antibody. (JPG) Click here for additional data file.
# [7] = molecular target: T3, KinomeScan kinase panel (Homo sapiens, UniProt O75747); test: KinomeScan kinase panel, single concentration 10 µM; format: binding; details: PIK3C2G, 10 µM; read-out: score (%)
# T3 construct: purchased DiscoveRx (KinomeScan)
# [8] = molecular target: T4, KinomeScan kinase panel (Homo sapiens, UniProt P20794); test: as above; format: binding; details: MAK, 10 µM; read-out: score (%)
# T4 construct: purchased DiscoveRx (KinomeScan)
# [9] = molecular target: T5, KinomeScan kinase panel (Homo sapiens, UniProt P42336, M1043I); test: as above; format: binding; details: PIK3CA(M1043I), 10 µM; read-out: score (%)
# T5 construct: purchased DiscoveRx (KinomeScan)
# [10] = molecular target: T6, KinomeScan kinase panel (Homo sapiens, UniProt P51617); test: as above; format: binding; details: IRAK1, 10 µM; read-out: score (%)
# T6 construct: purchased DiscoveRx (KinomeScan)
# [11] = molecular target: T7, KinomeScan kinase panel (Homo sapiens, UniProt Q56UN5); test: as above; format: binding; details: kinase YSK4; 10 µM; read-out: score (%)
# T7 construct: purchased DiscoveRx (KinomeScan)
# [12] = molecular target: T8, KinomeScan kinase panel (Homo sapiens, UniProt Q9NYY3); test: as above; format: binding
# T8 construct: purchased DiscoveRx (KinomeScan)
# [13] = molecular target: RET/M918T (Homo sapiens, UniProt P07949, M918T); test: cell-based; details: NIH3T3, read-out: inhibition of RET/M918T protein
# Chain of RET/M918T (P07949 29-1072 isoform P07949-2 M918T limits assumed): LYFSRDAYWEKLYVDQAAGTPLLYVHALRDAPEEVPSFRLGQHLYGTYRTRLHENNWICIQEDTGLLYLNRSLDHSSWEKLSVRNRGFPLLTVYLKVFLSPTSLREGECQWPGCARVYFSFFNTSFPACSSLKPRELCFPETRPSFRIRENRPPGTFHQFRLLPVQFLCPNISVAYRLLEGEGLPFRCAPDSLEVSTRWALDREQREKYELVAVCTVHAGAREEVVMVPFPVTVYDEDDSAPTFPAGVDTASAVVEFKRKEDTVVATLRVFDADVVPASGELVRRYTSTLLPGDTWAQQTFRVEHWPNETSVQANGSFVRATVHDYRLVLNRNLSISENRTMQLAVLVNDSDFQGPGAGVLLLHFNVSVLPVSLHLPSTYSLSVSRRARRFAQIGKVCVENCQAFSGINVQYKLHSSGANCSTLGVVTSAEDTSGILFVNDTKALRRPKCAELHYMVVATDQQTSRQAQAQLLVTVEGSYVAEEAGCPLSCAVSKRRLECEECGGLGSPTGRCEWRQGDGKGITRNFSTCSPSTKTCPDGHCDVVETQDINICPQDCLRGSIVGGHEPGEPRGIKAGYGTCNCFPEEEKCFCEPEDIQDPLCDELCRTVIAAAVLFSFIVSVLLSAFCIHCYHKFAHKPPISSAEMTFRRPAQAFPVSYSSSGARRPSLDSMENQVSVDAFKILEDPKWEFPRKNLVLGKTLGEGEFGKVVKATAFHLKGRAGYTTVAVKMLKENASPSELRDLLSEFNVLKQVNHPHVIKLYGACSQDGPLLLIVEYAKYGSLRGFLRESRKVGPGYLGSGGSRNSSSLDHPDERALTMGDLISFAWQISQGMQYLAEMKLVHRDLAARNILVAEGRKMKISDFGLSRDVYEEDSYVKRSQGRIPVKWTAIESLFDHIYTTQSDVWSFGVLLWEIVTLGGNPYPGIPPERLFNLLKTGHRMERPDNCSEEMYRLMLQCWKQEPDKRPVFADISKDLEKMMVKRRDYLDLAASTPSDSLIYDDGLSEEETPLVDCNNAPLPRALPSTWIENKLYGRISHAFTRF
# T1 sequence (P07949 29-1114): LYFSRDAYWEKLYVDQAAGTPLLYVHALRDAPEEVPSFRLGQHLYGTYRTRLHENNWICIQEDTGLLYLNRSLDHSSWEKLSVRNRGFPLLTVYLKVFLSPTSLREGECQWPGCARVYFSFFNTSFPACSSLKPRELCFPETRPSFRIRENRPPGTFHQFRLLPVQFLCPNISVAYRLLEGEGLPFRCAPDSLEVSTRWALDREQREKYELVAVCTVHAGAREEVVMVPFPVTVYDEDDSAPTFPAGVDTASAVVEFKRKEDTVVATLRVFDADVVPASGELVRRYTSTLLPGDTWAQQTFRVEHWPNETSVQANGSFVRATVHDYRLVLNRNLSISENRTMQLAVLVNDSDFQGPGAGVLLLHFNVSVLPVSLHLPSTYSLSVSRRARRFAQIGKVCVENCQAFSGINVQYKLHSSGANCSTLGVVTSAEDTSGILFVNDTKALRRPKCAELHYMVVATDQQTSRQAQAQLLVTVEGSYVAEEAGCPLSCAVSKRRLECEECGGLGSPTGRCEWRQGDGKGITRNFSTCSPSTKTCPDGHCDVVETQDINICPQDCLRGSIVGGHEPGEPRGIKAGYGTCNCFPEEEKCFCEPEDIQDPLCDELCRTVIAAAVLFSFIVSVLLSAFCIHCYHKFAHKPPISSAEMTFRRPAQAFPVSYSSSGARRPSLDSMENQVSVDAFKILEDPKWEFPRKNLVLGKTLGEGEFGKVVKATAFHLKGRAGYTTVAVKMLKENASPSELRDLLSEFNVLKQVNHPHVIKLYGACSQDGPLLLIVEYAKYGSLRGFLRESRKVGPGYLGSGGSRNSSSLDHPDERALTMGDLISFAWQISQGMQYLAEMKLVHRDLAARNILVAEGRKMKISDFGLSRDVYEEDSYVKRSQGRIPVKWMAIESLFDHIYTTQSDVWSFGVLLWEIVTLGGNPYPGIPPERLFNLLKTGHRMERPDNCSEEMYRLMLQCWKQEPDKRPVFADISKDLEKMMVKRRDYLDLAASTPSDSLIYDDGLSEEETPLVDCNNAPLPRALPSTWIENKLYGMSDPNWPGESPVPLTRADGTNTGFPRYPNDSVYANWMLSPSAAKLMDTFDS
# T2 sequence (P35968 20-1356): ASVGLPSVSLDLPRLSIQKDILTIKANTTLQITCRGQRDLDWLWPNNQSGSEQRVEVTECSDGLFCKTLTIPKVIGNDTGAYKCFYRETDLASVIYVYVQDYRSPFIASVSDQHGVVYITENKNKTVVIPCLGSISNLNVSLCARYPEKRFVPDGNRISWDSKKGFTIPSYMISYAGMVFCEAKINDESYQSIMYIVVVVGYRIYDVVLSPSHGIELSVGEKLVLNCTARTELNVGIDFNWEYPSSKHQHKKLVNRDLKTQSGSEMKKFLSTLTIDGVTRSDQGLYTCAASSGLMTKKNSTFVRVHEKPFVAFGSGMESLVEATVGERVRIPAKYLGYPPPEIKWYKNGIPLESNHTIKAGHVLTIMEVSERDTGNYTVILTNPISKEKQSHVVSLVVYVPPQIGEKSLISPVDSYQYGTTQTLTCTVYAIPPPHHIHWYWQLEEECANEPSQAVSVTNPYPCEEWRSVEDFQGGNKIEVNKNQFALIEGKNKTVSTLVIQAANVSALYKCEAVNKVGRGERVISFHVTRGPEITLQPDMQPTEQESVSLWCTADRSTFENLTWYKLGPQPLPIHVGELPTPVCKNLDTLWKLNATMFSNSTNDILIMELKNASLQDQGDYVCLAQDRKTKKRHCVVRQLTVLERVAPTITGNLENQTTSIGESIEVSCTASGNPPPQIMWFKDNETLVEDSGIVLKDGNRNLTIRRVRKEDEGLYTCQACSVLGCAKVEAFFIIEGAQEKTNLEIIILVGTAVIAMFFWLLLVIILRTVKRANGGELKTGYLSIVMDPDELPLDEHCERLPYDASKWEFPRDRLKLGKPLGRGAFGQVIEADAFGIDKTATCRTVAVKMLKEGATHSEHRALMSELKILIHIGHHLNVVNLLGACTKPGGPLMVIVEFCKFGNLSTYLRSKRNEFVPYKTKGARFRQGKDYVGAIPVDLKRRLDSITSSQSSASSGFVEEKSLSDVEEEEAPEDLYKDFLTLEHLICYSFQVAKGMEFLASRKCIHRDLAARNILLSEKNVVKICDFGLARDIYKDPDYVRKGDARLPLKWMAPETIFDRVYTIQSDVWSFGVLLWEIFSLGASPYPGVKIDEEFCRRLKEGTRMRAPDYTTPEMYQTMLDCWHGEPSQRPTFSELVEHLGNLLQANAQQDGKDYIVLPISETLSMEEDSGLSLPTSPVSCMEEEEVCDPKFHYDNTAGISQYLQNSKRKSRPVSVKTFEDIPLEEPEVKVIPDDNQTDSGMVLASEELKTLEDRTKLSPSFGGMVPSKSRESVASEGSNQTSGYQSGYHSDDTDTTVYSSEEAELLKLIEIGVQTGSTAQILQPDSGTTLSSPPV
# T3 sequence (O75747 whole entry): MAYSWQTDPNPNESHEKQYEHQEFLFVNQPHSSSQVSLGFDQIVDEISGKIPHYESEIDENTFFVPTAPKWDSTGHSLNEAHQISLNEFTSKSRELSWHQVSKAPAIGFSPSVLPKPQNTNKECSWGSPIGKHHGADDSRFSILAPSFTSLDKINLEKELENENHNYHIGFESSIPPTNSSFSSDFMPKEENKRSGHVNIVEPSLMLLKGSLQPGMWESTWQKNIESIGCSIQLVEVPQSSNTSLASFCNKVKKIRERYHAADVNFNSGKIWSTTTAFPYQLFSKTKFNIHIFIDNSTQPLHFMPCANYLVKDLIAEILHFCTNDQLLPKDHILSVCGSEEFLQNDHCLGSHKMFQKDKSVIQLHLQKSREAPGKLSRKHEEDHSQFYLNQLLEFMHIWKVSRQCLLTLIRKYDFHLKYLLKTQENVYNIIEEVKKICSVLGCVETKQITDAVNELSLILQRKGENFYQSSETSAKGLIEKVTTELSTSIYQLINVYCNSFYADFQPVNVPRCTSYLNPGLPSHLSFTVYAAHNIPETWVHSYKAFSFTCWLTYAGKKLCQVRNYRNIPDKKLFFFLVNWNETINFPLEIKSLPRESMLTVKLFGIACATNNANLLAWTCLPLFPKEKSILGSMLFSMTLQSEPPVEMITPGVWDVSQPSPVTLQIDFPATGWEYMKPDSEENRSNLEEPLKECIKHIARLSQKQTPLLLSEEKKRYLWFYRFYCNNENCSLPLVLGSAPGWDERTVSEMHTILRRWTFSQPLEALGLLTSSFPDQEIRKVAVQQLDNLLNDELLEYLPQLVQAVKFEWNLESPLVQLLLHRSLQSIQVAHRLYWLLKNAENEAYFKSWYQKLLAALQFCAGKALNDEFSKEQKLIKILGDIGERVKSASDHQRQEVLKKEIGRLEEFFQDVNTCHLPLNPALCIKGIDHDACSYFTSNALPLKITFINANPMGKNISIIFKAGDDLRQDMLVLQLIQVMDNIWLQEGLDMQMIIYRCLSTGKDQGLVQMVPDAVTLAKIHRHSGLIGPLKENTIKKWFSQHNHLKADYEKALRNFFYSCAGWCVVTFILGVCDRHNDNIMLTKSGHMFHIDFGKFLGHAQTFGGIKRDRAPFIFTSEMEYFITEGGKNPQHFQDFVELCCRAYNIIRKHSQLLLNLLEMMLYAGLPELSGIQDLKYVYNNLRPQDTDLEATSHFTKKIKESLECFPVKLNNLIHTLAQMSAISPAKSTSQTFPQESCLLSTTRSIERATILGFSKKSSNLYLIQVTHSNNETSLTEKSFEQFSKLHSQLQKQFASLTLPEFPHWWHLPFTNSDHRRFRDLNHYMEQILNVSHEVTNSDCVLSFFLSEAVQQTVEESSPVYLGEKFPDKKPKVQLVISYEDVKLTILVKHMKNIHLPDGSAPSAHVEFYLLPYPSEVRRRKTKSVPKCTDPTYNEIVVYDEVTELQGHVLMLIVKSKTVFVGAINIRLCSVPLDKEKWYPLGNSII
Compound,IC50 [1] [nM],IC50 [2] [nM],IC50 [3] [nM],effect on SHC and MAPK phosphorylation in parental RAT1 cells [4],effect on SHC and MAPK phosphorylation in Nthy-ori-3-1 cells [5],inhibition of VEGFRII phosphorylation in living TT cells [6],remaining binding at 10 µM [7] [%],remaining binding at 10 µM [8] [%],remaining binding at 10 µM [9] [%],remaining binding at 10 µM [10] [%],remaining binding at 10 µM [11] [%],"score (%) ([12]; PLK2, 10 µM)",inhibition at 0.01 µM [13] [%],"score (%) ([12]; kinase PLK2, 10 µM)"
CCN1CCN(Cc2ccc(NC(=O)c3ccc(C)c(NC(=O)c4cncc(-c5cccs5)c4)c3)cc2C(F)(F)F)CC1 [ALW-II-41-27],24.7,5.7,2,did not affect,did not exert any detectable effects,able to inhibit,> 30,> 30,> 30,17,21,nb (Hits values higher than 30% were considered negative (no binding: nb)),> 30,–
"CCN1CCN(Cc2ccc(NC(=O)c3ccc(C)c(/C=C/c4cnc5[nH]ccc5c4Cl)c3)cc2C(F)(F)F)CC1 [HG-6-63-01, (E)-3-(2-(4-chloro-1H-pyrrolo[2,3-b]pyridin-5-yl)vinyl)-N-(4-((4-ethylpiperazin-1-yl)methyl)-3-(trifluoromethyl)phenyl)-4-methylbenzamide]",35.3,2.3,1,did not affect,did not exert any detectable effects,able to inhibit,–,–,–,–,–,–,> 30,–
CCN1CCN(Cc2ccc(NC(=O)c3ccc(C)c(C#Cc4cccnc4)c3)cc2C(F)(F)F)CC1 [XMD15-44],14.2,1.5,4.2,did not affect,did not exert any detectable effects,able to inhibit,100,9,83,1.2,0.1,–,> 30,100
